Source: ChEMBL document CHEMBL1129824, “Nonpeptidic inhibitors of recombinant human calpain I” (Bioorg Med Chem Lett, 1997)

Tests used:
[1] = target: Prothrombin (Homo sapiens) (UniProt P00734); test: Inhibitory activity using serine protease, thrombin with Cbz-Phe-Val-Arg-AMC as substrate. The percent inhibition at 10 uM concentration, was reported.
[2] = target: Chymotrypsinogen A (Bos taurus) (UniProt P00766); test: Inhibitory activity using serine protease, alpha-chymotrypsin with Succ-Ala-Ala-Pro-Phe-AMC as substrate. The percent inhibition at 10 uM concentration, was reported.
[3] = target: T1, Calpain-1 catalytic subunit (Homo sapiens, UniProt P07384); test: Inhibitory activity using recombinant human Calpain 1 with Suc-Leu-Tyr-MNA as substrate.
T1 sequence (P07384 whole entry): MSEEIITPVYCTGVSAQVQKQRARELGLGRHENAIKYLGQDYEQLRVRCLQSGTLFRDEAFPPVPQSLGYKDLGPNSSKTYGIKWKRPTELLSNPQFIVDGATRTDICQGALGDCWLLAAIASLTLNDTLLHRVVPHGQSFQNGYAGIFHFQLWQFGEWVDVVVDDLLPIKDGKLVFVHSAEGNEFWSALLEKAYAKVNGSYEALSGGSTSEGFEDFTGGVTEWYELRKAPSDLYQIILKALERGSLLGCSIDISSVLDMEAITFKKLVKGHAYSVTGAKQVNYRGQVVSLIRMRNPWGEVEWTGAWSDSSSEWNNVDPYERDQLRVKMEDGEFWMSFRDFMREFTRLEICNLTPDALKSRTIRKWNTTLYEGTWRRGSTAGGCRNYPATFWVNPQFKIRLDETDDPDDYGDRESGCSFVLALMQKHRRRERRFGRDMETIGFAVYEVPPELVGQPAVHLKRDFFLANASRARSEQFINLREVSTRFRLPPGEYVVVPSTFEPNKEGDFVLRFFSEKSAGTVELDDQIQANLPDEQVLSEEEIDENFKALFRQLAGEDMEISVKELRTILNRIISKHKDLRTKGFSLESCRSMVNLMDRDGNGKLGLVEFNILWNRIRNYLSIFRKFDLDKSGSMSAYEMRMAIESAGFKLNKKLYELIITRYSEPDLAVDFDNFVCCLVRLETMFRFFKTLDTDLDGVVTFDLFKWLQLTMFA

[4] = target: Cathepsin B (Homo sapiens, UniProt P07858); test: Inhibitory activity using cysteine protease, Cathepsin B with Cbz-Phe-Arg-AMC as substrate.

In the case of `CC(C)C[C@@H](CCS(=O)(=O)c1ccc2ccccc2c1)C(=O)N[C@H](C=O)CC(C)C`, the inhibition [1] is reported as 2% and the inhibition [2] is reported as 12%.

Molecule `CC(C)C[C@H](CCSc1ccc2ccccc2c1)C(=O)N[C@H](C=O)CC(C)C` has an IC50 [3] of 75 nM, an IC50 [4] of 60 nM and an inhibition [1] of 5%. It also gave an inhibition [2] of 11%.

For `CC(C)C[C@H](CCS(=O)(=O)c1ccc2ccccc2c1)C(=O)N[C@H](C=O)CC(C)C`, the inhibition [1] was 1% and the inhibition [2] was 11%.

In the case of `CC(C)C[C@H](CC[S+]([O-])c1ccc2ccccc2c1)C(=O)N[C@H](C=O)CC(C)C` (some centres not stated), the IC50 [3] is reported as 30 nM, the IC50 [4] is reported as 60 nM and the inhibition [1] is reported as 2%. For the same molecule, the inhibition [2] was 18%.
